# EPA's ToxRefDB 2
# What was measured:
# rat [1] = details: Prenatal developmental toxicity study, sprague dawley, Oral, Gavage/Intubation, dose end: 15 GD
# rat [2] = details: Prenatal developmental toxicity study, sprague dawley, Oral, Gavage/Intubation, dose end: 19 GD
# rat [3] = details: Multigenerational reproductive toxicity study, sprague dawley, Oral, Feed, dose end: 2 generation
# rat [4] = details: Prenatal developmental toxicity study, long evans, Oral, Gavage/Intubation, dose end: 15 GD
# rat [5] = details: Prenatal developmental toxicity study, sprague dawley, Oral, Gavage/Intubation, dose end: 15 GD; remark: listed apart in the source
# rat [6] = details: Prenatal developmental toxicity study, sprague dawley, Oral, Gavage/Intubation, dose end: 15 GD; remark: listed apart in the source
# [7] = group: developmental, developmental / developmental malformation / bone / ossification sites + developmental / developmental malformation / bone / unossified + …
# [8] = group: maternal, systemic / in life observation / body weight / body weight gain + systemic / in life observation / clinical signs / labored respiration + …
# [9] = group: developmental, developmental / developmental malformation / bone / unossified
# [10] = group: maternal, reproductive / reproductive performance / postimplantation loss / postimplantation loss + reproductive / reproductive performance / …
# [11] = group: offspring, systemic / in life observation / body weight / offspring (pup) weight gain
# [12] = group: parental, systemic / in life observation / body weight / body weight + systemic / in life observation / body weight / body weight gain + systemic / in…
# [13] = group: reproductive, reproductive / reproductive performance / fertility / fertility + reproductive / reproductive performance / mating / mating
# [14] = group: developmental, developmental / developmental malformation / placenta / size + systemic / in life observation / body weight / fetal weight
# [15] = group: maternal, systemic / in life observation / body weight / body weight gain
# [16] = group: developmental, developmental / developmental malformation / bone / incomplete ossification
# [17] = group: maternal, systemic / in life observation / body weight / body weight gain + systemic / in life observation / food consumption / food consumption + …
# [18] = group: developmental, developmental / developmental malformation / bone / delayed ossification + systemic / in life observation / body weight / fetal weight
# [19] = group: maternal, systemic / organ weight / liver / nos + reproductive / reproductive performance / resorptions / resorptions + systemic / in life observation…
structure (smiles),measurement,setting,value
"O=Cc1ccccc1C=O [1,2-Benzenedicarboxaldehyde]",LEL,rat [1]; [7],40 mg/kg/day
same,LOAEL,rat [1]; [7],40 mg/kg/day
same,NEL,rat [1]; [7],20 mg/kg/day
same,NOAEL,rat [1]; [7],20 mg/kg/day
same,LEL,rat [1]; [8],10 mg/kg/day
same,LOAEL,rat [1]; [8],10 mg/kg/day
same,NEL,rat [1]; [8],< 10 mg/kg/day
same,NOAEL,rat [1]; [8],< 10 mg/kg/day
CC#N [Acetonitrile],LEL,rat [2]; [9],275 mg/kg/day
same,LOAEL,rat [2]; [9],> 275 mg/kg/day
same,NEL,rat [2]; [9],190 mg/kg/day
same,NOAEL,rat [2]; [9],≥ 275 mg/kg/day
same,LEL,rat [2]; [10],275 mg/kg/day
same,LOAEL,rat [2]; [10],> 275 mg/kg/day
same,NEL,rat [2]; [10],190 mg/kg/day
same,NOAEL,rat [2]; [10],≥ 275 mg/kg/day
CC(C)(NC(=O)NCc1ccccc1Cl)c1ccccc1 [Cumyluron],LEL,rat [3]; [11],297 mg/kg/day
same,LOAEL,rat [3]; [11],297 mg/kg/day
same,NEL,rat [3]; [11],54 mg/kg/day
same,NOAEL,rat [3]; [11],54 mg/kg/day
same,LEL,rat [3]; [12],297 mg/kg/day
same,LOAEL,rat [3]; [12],297 mg/kg/day
same,NEL,rat [3]; [12],54 mg/kg/day
same,NOAEL,rat [3]; [12],54 mg/kg/day
same,LEL,rat [3]; [13],297 mg/kg/day
same,LOAEL,rat [3]; [13],297 mg/kg/day
same,NEL,rat [3]; [13],54 mg/kg/day
same,NOAEL,rat [3]; [13],54 mg/kg/day
NC1CCCCC1 [Cyclohexylamine],LEL,rat [4]; [14],100 mg/kg/day
same,LOAEL,rat [4]; [14],> 100 mg/kg/day
same,NEL,rat [4]; [14],30 mg/kg/day
same,NOAEL,rat [4]; [14],≥ 100 mg/kg/day
same,LEL,rat [4]; [15],100 mg/kg/day
same,LOAEL,rat [4]; [15],> 100 mg/kg/day
same,NEL,rat [4]; [15],30 mg/kg/day
same,NOAEL,rat [4]; [15],≥ 100 mg/kg/day
CCCCCCC(C)OC(=O)COc1nc(F)c(Cl)c(N)c1Cl (configuration not stated) [Fluroxypyr-meptyl],LEL,rat [5]; [16],> 600 mg/kg/day
same,LOAEL,rat [5]; [16],> 600 mg/kg/day
same,NEL,rat [5]; [16],≥ 600 mg/kg/day
same,NOAEL,rat [5]; [16],≥ 600 mg/kg/day
same,LEL,rat [5]; [17],600 mg/kg/day
same,LOAEL,rat [5]; [17],600 mg/kg/day
same,NEL,rat [5]; [17],300 mg/kg/day
same,NOAEL,rat [5]; [17],300 mg/kg/day
CC1(C)OC(c2ccco2)CN1C(=O)C(Cl)Cl (configuration not stated) [Furilazole],LEL,rat [6]; [18],175 mg/kg/day
same,LOAEL,rat [6]; [18],> 175 mg/kg/day
same,NEL,rat [6]; [18],75 mg/kg/day
same,NOAEL,rat [6]; [18],≥ 175 mg/kg/day
same,LOAEL,"rat [6]; group: maternal, systemic / organ weight / liver / nos",75 mg/kg/day
same,LEL,"rat [6]; group: maternal, systemic / organ weight / liver / nos + reproductive / reproductive performance / resorptions / resorptions",75 mg/kg/day
same,NEL,rat [6]; [19],10 mg/kg/day
same,NOAEL,rat [6]; [19],10 mg/kg/day
